# Test results published in paper PMC10714400, “Antimicrobial Peptide–Peptoid Hybrids with and without Membrane Disruption” (ACS Infectious Diseases, 2023).
# Like-named read-outs stand apart in the source and are kept apart here. Where a SMILES comes first, the peptide text is derived from it. [ ]: non-standard residue; d: D form. Nleu = CC(C)CNCC(=O)O; Nlys = NCCCCNCC(=O)O
# Columns and labels:
# B. cenocepacia = settings: diluted MH ([…] MH) at pH 8.5 (Table 2 footnote b)
# How it was run: (§1)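 MIC taken visually after MTT staining (20–30 min, RT) as the lowest compound concentration preventing growth, i.e. yellow wells. Inoculum ~5 × 10^5 CFU/well in MH broth, 37 °C static for ca. 18 h; polymyxin B control started at 16 μg/mL.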
# S. maltophilia = settings: […] MH at pH 8.5
# How it was run: as §1
# S. aureus Newman = settings: […] MH at pH 8.5
# How it was run: as §1
# S. epidermis = settings: […] MH at pH 8.5
# How it was run: as §1
# P. aeruginosa PA14 = test system: P. aeruginosa PA14
# How it was run: as §1
# [1] = Circular dichroism, α-helical content; assay type: physicochemical; settings: 0.1 mg/mL; for CD %α with 5 mM DPC: 10 mM phosphate buffer pH 7.4, 5 mM DPC; for CD %α with 20% TFE: 10 mM phosphate buffer pH 7.4, 20% TFE
# A. baumannii ATCC19606 = test system: A. baumannii ATCC19606
# How it was run: (§2)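 MTT added (20–30 min, room temperature); MIC read by eye as lowest concentration inhibiting visible growth (yellow). Polymyxin B positive control from 16 μg/mL.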
# [2] = test system: ZEM-1A (clinical MDR P. aeruginosa isolate)
# How it was run: as §1
# [3] = test system: ZEM9A (clinical MDR P. aeruginosa isolate); settings: […] MH at pH 8.5
# How it was run: as §1
# E. cloacae = settings: […] MH at pH 8.5
# How it was run: as §1
# PA14 2P4 (pmrB) = test system: PA14 2P4 (pmrB)
# How it was run: as §1
# K. pneumoniae OXA-48 = settings: […] MH at pH 8.5
# How it was run: as §1
# PA14 4.18 (pmrB) = test system: PA14 4.18 (pmrB)
# How it was run: as §1
# K. pneumoniae NCTC418 = test system: K. pneumoniae NCTC418
# How it was run: as §2
# PA14 4.13 (phoQ) = test system: PA14 4.13 (phoQ)
# How it was run: as §1
# S. aureus COL (MRSA) = test system: S. aureus COL (MRSA)
# How it was run: as §1
# E. coli W3110 = test system: E. coli W3110
# How it was run: as §1
# P. aeruginosa PAO1 = test system: P. aeruginosa PAO1
# How it was run: as §1
# [4] = test system: human red blood cells (hRBC); assay: Minimum hemolytic concentration (MHC); assay type: cell-based
# From the text: We also measured minimal hemolysis concentrations (MHC) on human red blood cells by serial 2-fold dilution as an indication of toxicity against eukaryotic cells (Table 1).
# [5] = diluted MH ([…] MH) at pH 8.5 (Table 2 footnote b)
smiles,measurement,setting,value
"CC(C)CN(CC(N)=O)C(=O)CN(CC(C)C)C(=O)CN(CC(C)C)C(=O)CN(CCCCN)C(=O)CN(CC(C)C)C(=O)CN(CC(C)C)C(=O)CN(CCCCN)C(=O)CN(CC(C)C)C(=O)CN(CC(C)C)C(=O)CN(CCCCN)C(=O)CNCCCCN [EB11, kkllkllklll] (H-[Nlys][Nlys][Nleu][Nleu][Nlys][Nleu][Nleu][Nlys][Nleu][Nleu][Nleu]-NH2)",MIC B. cenocepacia,B. cenocepacia,>32 µg/mL
same,"MIC S. maltophilia, […] MH at pH 8.5",S. maltophilia; CSV,4 ug/mL
same,MIC S. maltophilia,S. maltophilia; Table S3,4 µg/mL
same,"MIC S. aureus Newman, […] MH at pH 8.5",S. aureus Newman; CSV,4 ug/mL
same,MIC S. aureus Newman,S. aureus Newman; Table S3,4 µg/mL
same,"MIC S. epidermis, […] MH at pH 8.5",S. epidermis; CSV,1 ug/mL
same,MIC S. epidermis,S. epidermis; Table S3,1 µg/mL
same,"MIC P. aeruginosa PA14, […] MH at pH 8.5","P. aeruginosa PA14; CSV, […] MH at pH 8.5",3 ug/mL
same,MIC P. aeruginosa PA14,"P. aeruginosa PA14; Table S3, […] MH at pH 8.5, 16-20 hours at 37 °C",2 to 4 µg/mL
same,MIC P. aeruginosa PA14,P. aeruginosa PA14; [5],2 to 4 µg/mL
same,CD %α with 5 mM DPC,"[1]; DichroWeb, Contin-LL",7%
same,CD %α with 20% TFE,"[1]; DichroWeb, Contin-LL",8%
same,CD %α with 5 mM DPC,[1]; Table S2,7%
same,CD %α with 20% TFE,[1]; Table S2,8%
same,"MIC A. baumannii ATCC19606, […] MH at pH 7.4","A. baumannii ATCC19606; CSV, […] MH at pH 7.4",16 ug/mL
same,"MIC A. baumannii ATCC19606, […] MH at pH 8.5","A. baumannii ATCC19606; CSV, […] MH at pH 8.5",16 ug/mL
same,"MIC A. baumannii ATCC19606, full MH at pH 7.4","A. baumannii ATCC19606; CSV, full MH at pH 7.4",>32 ug/mL
same,"MIC A. baumannii ATCC19606, full MH at pH 8.5","A. baumannii ATCC19606; CSV, full MH at pH 8.5",>32 ug/mL
same,MIC A. baumannii ATCC19606 […] 7.4,"A. baumannii ATCC19606; Table S2, […] MH, pH 7.4",16 µg/mL
same,MIC A. baumannii ATCC19606 […] 8.5,"A. baumannii ATCC19606; Table S2, […] MH, pH 8.5",16 µg/mL
same,MIC A. baumannii ATCC19606 Full MH 7.4,"A. baumannii ATCC19606; Table S2, full MH, pH 7.4",> 32 µg/mL
same,MIC A. baumannii ATCC19606 Full MH 8.5,"A. baumannii ATCC19606; Table S2, full MH, pH 8.5",> 32 µg/mL
same,"MIC P. aeruginosa ZEM-1A, […] MH at pH 8.5","[2]; CSV, […] MH at pH 8.5",3 ug/mL
same,MIC P. aeruginosa ZEM-1A,"[2]; Table S3, […] MH at pH 8.5",2 to 4 µg/mL
same,MIC ZEM-1A,[2]; [5],2 to 4 µg/mL
same,"MIC P. aeruginosa ZEM9A, […] MH at pH 8.5",[3]; CSV,4 ug/mL
same,MIC P. aeruginosa ZEM9A,[3]; Table S3,4 µg/mL
same,"MIC E. cloacae, […] MH at pH 8.5",E. cloacae; CSV,16 ug/mL
same,MIC E. cloacae,E. cloacae; Table S3,16 µg/mL
same,"MIC P. aeruginosa PA14 2P4, […] MH at pH 8.5","PA14 2P4 (pmrB); CSV, […] MH at pH 8.5",12 ug/mL
same,MIC P. aeruginosa PA14 2P4,"PA14 2P4 (pmrB); Table S3, […] MH at pH 8.5",8 to 16 µg/mL
same,MIC PA14 2P4 (pmrB),PA14 2P4 (pmrB); [5],8 to 16 µg/mL
same,"MIC K. pneumoniae OXA-48, […] MH at pH 8.5",K. pneumoniae OXA-48; CSV,32 ug/mL
same,MIC K. pneumoniae OXA-48,K. pneumoniae OXA-48; Table S3,32 µg/mL
same,"MIC P. aeruginosa PA14 4.18, […] MH at pH 8.5","PA14 4.18 (pmrB); CSV, […] MH at pH 8.5",12 ug/mL
same,MIC P. aeruginosa PA14 4.18,"PA14 4.18 (pmrB); Table S3, […] MH at pH 8.5",8 to 16 µg/mL
same,MIC PA14 4.18 (pmrB),PA14 4.18 (pmrB); [5],8 to 16 µg/mL
same,"MIC K. pneumoniae NCTC418, […] MH at pH 7.4","K. pneumoniae NCTC418; CSV, […] MH at pH 7.4",32 ug/mL
same,"MIC K. pneumoniae NCTC418, […] MH at pH 8.5","K. pneumoniae NCTC418; CSV, […] MH at pH 8.5",32 ug/mL
same,"MIC K. pneumoniae NCTC418, full MH at pH 7.4","K. pneumoniae NCTC418; CSV, full MH at pH 7.4",>32 ug/mL
same,"MIC K. pneumoniae NCTC418, full MH at pH 8.5","K. pneumoniae NCTC418; CSV, full MH at pH 8.5",>32 ug/mL
same,MIC K. pneumoniae NCTC418 […] 7.4,"K. pneumoniae NCTC418; Table S2, […] MH, pH 7.4",32 µg/mL
same,MIC K. pneumoniae NCTC418 […] 8.5,"K. pneumoniae NCTC418; Table S2, […] MH, pH 8.5",32 µg/mL
same,MIC K. pneumoniae NCTC418 Full MH 7.4,"K. pneumoniae NCTC418; Table S2, full MH, pH 7.4",> 32 µg/mL
same,MIC K. pneumoniae NCTC418 Full MH 8.5,"K. pneumoniae NCTC418; Table S2, full MH, pH 8.5",> 32 µg/mL
same,"MIC P. aeruginosa PA14 4.13, […] MH at pH 8.5","PA14 4.13 (phoQ); CSV, […] MH at pH 8.5",6 ug/mL
same,MIC P. aeruginosa PA14 4.13,"PA14 4.13 (phoQ); Table S3, […] MH at pH 8.5",4 to 8 µg/mL
same,MIC PA14 4.13 (phoQ),PA14 4.13 (phoQ); [5],4 to 8 µg/mL
same,"MIC S. aureus COL (MRSA), […] MH at pH 7.4","S. aureus COL (MRSA); CSV, […] MH at pH 7.4",>32 ug/mL
same,"MIC S. aureus COL (MRSA), […] MH at pH 8.5","S. aureus COL (MRSA); CSV, […] MH at pH 8.5",6 ug/mL
same,"MIC S. aureus COL (MRSA), full MH at pH 7.4","S. aureus COL (MRSA); CSV, full MH at pH 7.4",>32 ug/mL
same,"MIC S. aureus COL (MRSA), full MH at pH 8.5","S. aureus COL (MRSA); CSV, full MH at pH 8.5",>32 ug/mL
same,MIC S. aureus COL (MRSA) […] 7.4,"S. aureus COL (MRSA); Table S2, […] MH, pH 7.4",> 32 µg/mL
same,MIC S. aureus COL (MRSA) […] 8.5,"S. aureus COL (MRSA); Table S2, […] MH, pH 8.5",4 to 8 µg/mL
same,MIC S. aureus COL (MRSA) Full MH 7.4,"S. aureus COL (MRSA); Table S2, full MH, pH 7.4",> 32 µg/mL
same,MIC S. aureus COL (MRSA) Full MH 8.5,"S. aureus COL (MRSA); Table S2, full MH, pH 8.5",> 32 µg/mL
same,MIC S. aureus COL (MRSA) […],"S. aureus COL (MRSA); diluted MH ([…] MH, pH 8.5) per Table 1 footnote b, 16–20 h at 37 °C",>32 µg/mL
same,"MIC E. coli W3110, […] MH at pH 7.4","E. coli W3110; CSV, […] MH at pH 7.4",8 ug/mL
same,"MIC E. coli W3110, […] MH at pH 8.5","E. coli W3110; CSV, […] MH at pH 8.5",3 ug/mL
same,"MIC E. coli W3110, full MH at pH 7.4","E. coli W3110; CSV, full MH at pH 7.4",>32 ug/mL
same,"MIC E. coli W3110, full MH at pH 8.5","E. coli W3110; CSV, full MH at pH 8.5",>32 ug/mL
same,Antibacterial activity as a function of NaCl concentration,"E. coli W3110; E. coli W3110, […] MH at pH 8.5, up to 300 mM NaCl",strongly reduced
same,MIC E. coli W3110 […] 7.4,"E. coli W3110; Table S2, […] MH, pH 7.4",8 µg/mL
same,MIC E. coli W3110 […] 8.5,"E. coli W3110; Table S2, […] MH, pH 8.5",2 to 4 µg/mL
same,MIC E. coli W3110 Full MH 7.4,"E. coli W3110; Table S2, full MH, pH 7.4",> 32 µg/mL
same,MIC E. coli W3110 Full MH 8.5,"E. coli W3110; Table S2, full MH, pH 8.5",> 32 µg/mL
same,"MIC P. aeruginosa PAO1, […] MH at pH 7.4","P. aeruginosa PAO1; CSV, […] MH at pH 7.4",8 ug/mL
same,"MIC P. aeruginosa PAO1, full MH at pH 7.4","P. aeruginosa PAO1; CSV, full MH at pH 7.4",>32 ug/mL
same,"MIC P. aeruginosa PAO1, full MH at pH 8.5","P. aeruginosa PAO1; CSV, full MH at pH 8.5",>32 ug/mL
same,Antibacterial activity as a function of NaCl concentration,"P. aeruginosa PAO1; P. aeruginosa PAO1, […] MH at pH 8.5, up to 300 mM NaCl",strongly reduced
same,MIC P. aeruginosa PAO1 […] 7.4,"P. aeruginosa PAO1; Table S2, […] MH, pH 7.4",8 µg/mL
same,MIC P. aeruginosa PAO1 […] 8.5,"P. aeruginosa PAO1; Table S2, […] MH, pH 8.5",4 µg/mL
same,MIC P. aeruginosa PAO1 Full MH 7.4,"P. aeruginosa PAO1; Table S2, full MH, pH 7.4",> 32 µg/mL
same,MIC P. aeruginosa PAO1 Full MH 8.5,"P. aeruginosa PAO1; Table S2, full MH, pH 8.5",> 32 µg/mL
same,MHC,[4]; CSV,>2000 µg/mL
same,MHC,"[4]; Table S2, hRBC, 10 mM phosphate buffer, 150 mM NaCl, pH 7.4, 25 °C, 4 h",> 2000 µg/mL
same,MHC,"[4]; hRBC, 10 mM phosphate buffer, 150 mM NaCl, pH 7.4, 25 °C, 4 h",>2000 µg/mL
same,Hemolysis,[4]; human red blood cells,none of them showed any measurable hemolysis
